Assay [1] addresses Tyrosine-protein kinase JAK2 (Mus musculus, UniProt Q62120, V617F). Description: Inhibition of JAK2 V617F mutant in mouse BAF3 cells. The format is cell-based.
Assay [2] has as its target T1, Signal transducer and activator of transcription 5A (Homo sapiens, UniProt P42229).
T1 sequence (P42229 whole entry): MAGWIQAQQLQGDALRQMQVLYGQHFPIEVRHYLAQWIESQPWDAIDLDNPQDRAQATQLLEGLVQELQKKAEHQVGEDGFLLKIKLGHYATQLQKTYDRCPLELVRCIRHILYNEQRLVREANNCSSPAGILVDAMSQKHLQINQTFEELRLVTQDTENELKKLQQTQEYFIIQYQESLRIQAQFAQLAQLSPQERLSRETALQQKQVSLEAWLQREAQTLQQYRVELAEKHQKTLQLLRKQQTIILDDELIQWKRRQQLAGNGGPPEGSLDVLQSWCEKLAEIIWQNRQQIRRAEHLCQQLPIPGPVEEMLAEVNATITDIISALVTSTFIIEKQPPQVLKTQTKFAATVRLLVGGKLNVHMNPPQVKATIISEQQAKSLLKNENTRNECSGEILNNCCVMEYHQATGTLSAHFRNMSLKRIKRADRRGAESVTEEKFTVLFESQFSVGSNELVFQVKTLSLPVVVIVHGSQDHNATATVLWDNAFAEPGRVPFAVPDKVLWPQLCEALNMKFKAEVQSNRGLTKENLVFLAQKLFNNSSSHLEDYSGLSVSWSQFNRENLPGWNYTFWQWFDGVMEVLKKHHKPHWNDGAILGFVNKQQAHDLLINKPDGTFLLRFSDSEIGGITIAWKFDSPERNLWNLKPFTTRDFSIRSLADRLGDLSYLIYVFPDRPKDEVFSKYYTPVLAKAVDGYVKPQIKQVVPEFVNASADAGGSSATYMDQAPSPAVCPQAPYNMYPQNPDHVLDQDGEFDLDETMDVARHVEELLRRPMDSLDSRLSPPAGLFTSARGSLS
Description: Inhibition of STAT5 DNA binding activity in human K562 cells after 24 hrs by electrophoretic mobility shift assay. The format is cell-based. On the technique in general: In EMSA bound probe runs differently from free probe, usually more slowly.

Assay [3] has as its target T1, Signal transducer and activator of transcription 5A. Description: Inhibition of STAT5 (unknown origin).
Assay [4] has as its target Signal transducer and activator of transcription 3 (Homo sapiens, UniProt P40763). Description: Inhibition of STAT3 (unknown origin).
Assay [5] has as its target T2, Signal transducer and activator of transcription 1-alpha/beta (Homo sapiens, UniProt P42224).
T2 sequence (P42224 whole entry): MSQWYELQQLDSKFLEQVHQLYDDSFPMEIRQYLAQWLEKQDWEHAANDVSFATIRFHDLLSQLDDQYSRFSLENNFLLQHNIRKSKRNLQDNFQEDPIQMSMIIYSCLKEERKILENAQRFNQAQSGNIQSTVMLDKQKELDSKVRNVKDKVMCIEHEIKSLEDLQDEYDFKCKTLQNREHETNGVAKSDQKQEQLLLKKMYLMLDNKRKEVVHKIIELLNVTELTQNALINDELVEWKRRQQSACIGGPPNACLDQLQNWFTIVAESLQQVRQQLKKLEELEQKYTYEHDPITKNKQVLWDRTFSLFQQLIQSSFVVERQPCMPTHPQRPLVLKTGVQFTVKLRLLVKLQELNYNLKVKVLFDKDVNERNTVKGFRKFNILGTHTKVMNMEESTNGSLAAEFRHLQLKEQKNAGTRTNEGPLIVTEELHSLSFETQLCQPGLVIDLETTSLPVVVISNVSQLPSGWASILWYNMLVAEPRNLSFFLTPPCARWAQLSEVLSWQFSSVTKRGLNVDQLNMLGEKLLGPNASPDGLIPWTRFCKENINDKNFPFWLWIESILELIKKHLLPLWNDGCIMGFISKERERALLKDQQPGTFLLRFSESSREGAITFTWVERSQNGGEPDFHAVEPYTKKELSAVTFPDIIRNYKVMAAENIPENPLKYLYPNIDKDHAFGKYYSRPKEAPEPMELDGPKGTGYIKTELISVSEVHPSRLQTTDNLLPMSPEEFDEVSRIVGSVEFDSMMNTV
The assay can be described thus: Inhibition of STAT1 (unknown origin).

The nature of a further assay: cells. To be noted: Homo sapiens, EOL1.
For another assay, the system named is BaF3. The assay can be described thus: Cytotoxicity against mouse BAF3 cells expressing JAK2 V617F mutant after 48 hrs by CellTiterGlo assay. The format is functional, cell-based. As to conditions: BaF3, 48 h. Background: Cellular ATP, detected with luciferase, serves as a proxy for viable cell number.

Sequence of Signal transducer and activator of transcription 3 (P40763 whole entry): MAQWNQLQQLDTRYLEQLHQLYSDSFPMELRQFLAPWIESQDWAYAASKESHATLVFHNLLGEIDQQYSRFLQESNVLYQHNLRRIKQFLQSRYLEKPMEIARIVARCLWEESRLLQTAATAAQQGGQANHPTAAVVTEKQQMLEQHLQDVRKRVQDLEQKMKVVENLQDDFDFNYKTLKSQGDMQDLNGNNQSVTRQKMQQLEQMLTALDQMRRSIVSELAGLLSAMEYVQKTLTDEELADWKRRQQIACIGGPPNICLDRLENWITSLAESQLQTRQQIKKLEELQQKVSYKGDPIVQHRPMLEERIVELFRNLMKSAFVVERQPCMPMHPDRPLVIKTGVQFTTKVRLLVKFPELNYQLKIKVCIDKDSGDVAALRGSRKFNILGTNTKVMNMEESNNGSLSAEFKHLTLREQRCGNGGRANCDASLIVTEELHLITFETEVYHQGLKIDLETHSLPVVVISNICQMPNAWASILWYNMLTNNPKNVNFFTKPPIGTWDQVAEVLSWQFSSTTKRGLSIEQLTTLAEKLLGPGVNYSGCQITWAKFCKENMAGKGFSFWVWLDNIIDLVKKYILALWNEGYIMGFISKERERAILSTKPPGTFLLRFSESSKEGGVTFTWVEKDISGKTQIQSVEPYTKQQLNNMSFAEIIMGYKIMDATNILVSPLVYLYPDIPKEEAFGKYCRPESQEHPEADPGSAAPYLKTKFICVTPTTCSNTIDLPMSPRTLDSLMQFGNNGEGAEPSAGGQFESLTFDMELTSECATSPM
Sequence of Tyrosine-protein kinase JAK2 (Q62120 as listed by the source V617F): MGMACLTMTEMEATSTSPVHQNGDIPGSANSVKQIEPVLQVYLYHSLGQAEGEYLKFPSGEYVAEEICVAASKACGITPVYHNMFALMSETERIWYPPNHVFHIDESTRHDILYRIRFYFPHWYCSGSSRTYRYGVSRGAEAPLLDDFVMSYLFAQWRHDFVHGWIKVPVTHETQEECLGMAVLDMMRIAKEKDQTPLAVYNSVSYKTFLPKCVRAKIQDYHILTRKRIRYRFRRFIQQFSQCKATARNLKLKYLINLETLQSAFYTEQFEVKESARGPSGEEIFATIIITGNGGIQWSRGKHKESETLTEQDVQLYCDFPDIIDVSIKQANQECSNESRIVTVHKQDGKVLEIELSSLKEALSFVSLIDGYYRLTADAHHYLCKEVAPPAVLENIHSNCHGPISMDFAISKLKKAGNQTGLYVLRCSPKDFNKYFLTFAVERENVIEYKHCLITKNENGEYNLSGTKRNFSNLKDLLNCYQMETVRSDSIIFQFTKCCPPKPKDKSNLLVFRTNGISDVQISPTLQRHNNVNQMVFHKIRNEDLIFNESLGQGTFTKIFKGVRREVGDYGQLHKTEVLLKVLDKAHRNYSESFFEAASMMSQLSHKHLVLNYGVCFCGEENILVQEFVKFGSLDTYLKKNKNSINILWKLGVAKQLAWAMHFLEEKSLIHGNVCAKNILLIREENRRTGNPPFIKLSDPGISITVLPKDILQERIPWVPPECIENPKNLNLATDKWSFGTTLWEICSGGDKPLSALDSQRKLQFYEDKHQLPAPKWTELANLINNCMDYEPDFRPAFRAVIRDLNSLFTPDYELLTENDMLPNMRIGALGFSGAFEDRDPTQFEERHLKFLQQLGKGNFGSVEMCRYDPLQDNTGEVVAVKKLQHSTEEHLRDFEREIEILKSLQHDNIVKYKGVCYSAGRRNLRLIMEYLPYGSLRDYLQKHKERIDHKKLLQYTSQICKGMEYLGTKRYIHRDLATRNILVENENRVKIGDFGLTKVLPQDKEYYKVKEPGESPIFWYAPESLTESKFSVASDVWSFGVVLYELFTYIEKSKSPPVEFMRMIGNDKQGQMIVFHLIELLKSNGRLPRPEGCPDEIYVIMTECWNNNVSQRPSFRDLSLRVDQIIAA
Description for cells: Antiproliferative activity against human EOL-1 cells by CellTiterGlo assay

By IC50 is commonly meant the concentration needed to halve the response being measured. The compound `N#CCNC(=O)c1ccc(-c2ccnc(Nc3ccc(N4CCOCC4)cc3)n2)cc1` [MOMELOTINIB] gave an IC50 in assay [1] of 1500 nM.
As for `Cc1cc(Nc2ncc3cc(-c4c(Cl)cccc4Cl)c(=O)n(C)c3n2)ccc1F`, the IC50 in assay [2] turned out to be 5 nM.
Regarding `O=C(N/N=C/c1coc2ccccc2c1=O)c1cccnc1`, the IC50 worked out at 47000 nM in assay [3], 180000 nM in assay [4] and 130000 nM in assay [5].
Compound `CNC(=O)c1cc(Oc2ccc(NC(=O)Nc3ccc(Cl)c(C(F)(F)F)c3)cc2)ccn1` [SORAFENIB] returned a 50% inhibitory concentration (IC50) in “cells” of 2.3 nM.
With `N#CC[C@H](C1CCCC1)n1cc(-c2ncnc3[nH]ccc23)cn1` [RUXOLITINIB], half-maximal inhibition in the assay on BaF3 (IC50) was put at 126 nM.

The values above are taken from ChEMBL document CHEMBL3217496, “Inhibitors of Stat5 protein signalling” (Medchemcomm, 2012).
